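Five compound concentrations were applied to cells in 96-well plates for 48 hours; endpoints were derived by simple linear interpolation of the resulting dose-response curve. Here, GI50 denotes the concentration required for 50% inhibition of growth. TGI is the concentration that stops growth completely.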
Tests used:
Experiment in all cases: NCI tumour cell line growth inhibition, 48 h
NCI-H460 lung = system: NCI-H460 lung
SF-268 CNS = system: SF-268 CNS
SNB-75 CNS = system: SNB-75 CNS
RPMI-8226 leukemia = system: RPMI-8226 leukemia
HOP-62 NSCLC = system: HOP-62 NSCLC
KM12 colon = system: KM12 colon
MALME-3M melanoma = system: MALME-3M melanoma
OVCAR-8 ovarian = system: OVCAR-8 ovarian
SK-MEL-2 melanoma = system: SK-MEL-2 melanoma
SF-539 CNS = system: SF-539 CNS
NCI/ADR-RES ovarian = system: NCI/ADR-RES ovarian
UACC-257 melanoma = system: UACC-257 melanoma
RXF 393 renal = system: RXF 393 renal
SN12C renal = system: SN12C renal
SF-295 CNS = system: SF-295 CNS
MDA-MB-231 breast = system: MDA-MB-231 breast
HCT-15 colon = system: HCT-15 colon
UO-31 renal = system: UO-31 renal
786-0 renal = system: 786-0 renal
MDA-MB-435 = system: MDA-MB-435
DU-145 prostate = system: DU-145 prostate
M14 melanoma = system: M14 melanoma
BT-549 breast = system: BT-549 breast
HL-60(TB) leukemia = system: HL-60(TB) leukemia
CCRF-CEM leukemia = system: CCRF-CEM leukemia
MOLT-4 leukemia = system: MOLT-4 leukemia
HCC-2998 colon = system: HCC-2998 colon
CAKI-1 renal = system: CAKI-1 renal
IGROV1 ovarian = system: IGROV1 ovarian
NCI-H522 lung = system: NCI-H522 lung
HT29 colon = system: HT29 colon
OVCAR-5 ovarian = system: OVCAR-5 ovarian
MCF7 breast = system: MCF7 breast
A549 NSCLC = system: A549 NSCLC
TK-10 renal = system: TK-10 renal
HOP-92 NSCLC = system: HOP-92 NSCLC
UACC-62 melanoma = system: UACC-62 melanoma
T-47D breast = system: T-47D breast
COLO 205 colon = system: COLO 205 colon
SK-MEL-5 melanoma = system: SK-MEL-5 melanoma
PC-3 prostate = system: PC-3 prostate
HS 578T breast = system: HS 578T breast
K-562 leukemia = system: K-562 leukemia
LOX IMVI melanoma = system: LOX IMVI melanoma
SNB-19 CNS = system: SNB-19 CNS
SK-OV-3 ovarian = system: SK-OV-3 ovarian
OVCAR-4 ovarian = system: OVCAR-4 ovarian
SK-MEL-28 melanoma = system: SK-MEL-28 melanoma
EKVX NSCLC = system: EKVX NSCLC
SW-620 colon = system: SW-620 colon
SR leukemia = system: SR leukemia
HCT-116 colon = system: HCT-116 colon
U251 CNS = system: U251 CNS
ACHN renal = system: ACHN renal
A498 renal = system: A498 renal
NCI-H23 lung = system: NCI-H23 lung
OVCAR-3 ovarian = system: OVCAR-3 ovarian

Cc1oc2nc[nH]c(=O)c2c1C(=O)/C=C/c1ccc(Br)cc1
GI50 (NCI-H460 lung): 3.25 µM | TGI (NCI-H460 lung): 11 µM | GI50 (SF-268 CNS): 3.08 µM | TGI (SF-268 CNS): 17.5 µM | GI50 (SNB-75 CNS): 1.23 µM | TGI (SNB-75 CNS): 9.62 µM | GI50 (RPMI-8226 leukemia): 1.36 µM | TGI (RPMI-8226 leukemia): 6.91 µM | GI50 (HOP-62 NSCLC): 2.62 µM | TGI (HOP-62 NSCLC): 9.73 µM | GI50 (KM12 colon): 1.51 µM | TGI (KM12 colon): 3.44 µM | GI50 (MALME-3M melanoma): 1.89 µM | TGI (MALME-3M melanoma): 6 µM | GI50 (OVCAR-8 ovarian): 2.08 µM | TGI (OVCAR-8 ovarian): 88.3 µM | GI50 (SK-MEL-2 melanoma): 2.34 µM | TGI (SK-MEL-2 melanoma): 7.1 µM | GI50 (SF-539 CNS): 1.73 µM | TGI (SF-539 CNS): 4.64 µM | GI50 (NCI/ADR-RES ovarian): 1.84 µM | TGI (NCI/ADR-RES ovarian): 20.8 µM | GI50 (UACC-257 melanoma): 2.37 µM | TGI (UACC-257 melanoma): 11.3 µM | GI50 (RXF 393 renal): 1.41 µM | TGI (RXF 393 renal): 3.22 µM | GI50 (SN12C renal): 2.95 µM | TGI (SN12C renal): 11.9 µM | GI50 (SF-295 CNS): 4.22 µM | TGI (SF-295 CNS): 15 µM | GI50 (MDA-MB-231 breast): 3.47 µM | TGI (MDA-MB-231 breast): 17.8 µM | GI50 (HCT-15 colon): 1.09 µM | TGI (HCT-15 colon): 4.96 µM | GI50 (UO-31 renal): 0.781 µM | TGI (UO-31 renal): 7.39 µM | GI50 (786-0 renal): 1.8 µM | TGI (786-0 renal): 3.97 µM | GI50 (MDA-MB-435): 2 µM | TGI (MDA-MB-435): 6.69 µM | GI50 (DU-145 prostate): 2.03 µM | TGI (DU-145 prostate): 7.85 µM | GI50 (M14 melanoma): 2.14 µM | TGI (M14 melanoma): 8.53 µM | GI50 (BT-549 breast): 1.74 µM | TGI (BT-549 breast): 4.13 µM | GI50 (HL-60(TB) leukemia): 2.32 µM | TGI (HL-60(TB) leukemia): 10.3 µM | GI50 (CCRF-CEM leukemia): 1.01 µM | TGI (CCRF-CEM leukemia): 30.6 µM | GI50 (MOLT-4 leukemia): 2.84 µM | TGI (MOLT-4 leukemia): 17.9 µM | GI50 (HCC-2998 colon): 1.7 µM | TGI (HCC-2998 colon): 3.26 µM | GI50 (CAKI-1 renal): 1.34 µM | TGI (CAKI-1 renal): 11.5 µM | GI50 (IGROV1 ovarian): 1.81 µM | TGI (IGROV1 ovarian): 10.2 µM | GI50 (NCI-H522 lung): 1.89 µM | TGI (NCI-H522 lung): 5.76 µM | GI50 (HT29 colon): 2.36 µM | TGI (HT29 colon): 6.3 µM | GI50 (OVCAR-5 ovarian): 2.93 µM | TGI (OVCAR-5 ovarian): 9.32 µM | GI50 (MCF7 breast): 0.505 µM | TGI (MCF7 breast): 11.5 µM | GI50 (A549 NSCLC): 2.73 µM | TGI (A549 NSCLC): 14.2 µM | GI50 (TK-10 renal): 4.46 µM | TGI (TK-10 renal): 13.3 µM | GI50 (HOP-92 NSCLC): 1.35 µM | TGI (HOP-92 NSCLC): 6.86 µM | GI50 (UACC-62 melanoma): 1.33 µM | TGI (UACC-62 melanoma): 3.03 µM | GI50 (T-47D breast): 1.86 µM | TGI (T-47D breast): 14.2 µM | GI50 (COLO 205 colon): 1.7 µM | TGI (COLO 205 colon): 5.5 µM | GI50 (SK-MEL-5 melanoma): 1.56 µM | TGI (SK-MEL-5 melanoma): 3.27 µM | GI50 (PC-3 prostate): 2.36 µM | TGI (PC-3 prostate): 15.6 µM | GI50 (HS 578T breast): 3.49 µM | TGI (HS 578T breast): 38.9 µM | GI50 (K-562 leukemia): 0.798 µM | TGI (K-562 leukemia): > 100 µM | GI50 (LOX IMVI melanoma): 1.03 µM | TGI (LOX IMVI melanoma): 2.43 µM | GI50 (SNB-19 CNS): 1.8 µM | TGI (SNB-19 CNS): 5.44 µM | GI50 (SK-OV-3 ovarian): 4.08 µM | TGI (SK-OV-3 ovarian): 15.5 µM | GI50 (OVCAR-4 ovarian): 2.51 µM | TGI (OVCAR-4 ovarian): 13.1 µM | GI50 (SK-MEL-28 melanoma): 2.39 µM | TGI (SK-MEL-28 melanoma): 8.3 µM | GI50 (EKVX NSCLC): 2.37 µM | TGI (EKVX NSCLC): 12.8 µM | GI50 (SW-620 colon): 2.16 µM | TGI (SW-620 colon): 7.09 µM | GI50 (SR leukemia): 1.35 µM | TGI (SR leukemia): 16.3 µM | GI50 (HCT-116 colon): 1.26 µM | TGI (HCT-116 colon): 2.82 µM | GI50 (U251 CNS): 1.44 µM | TGI (U251 CNS): 3.17 µM | GI50 (ACHN renal): 1.6 µM | TGI (ACHN renal): 5.61 µM | GI50 (A498 renal): 2.46 µM | TGI (A498 renal): 6.82 µM | GI50 (NCI-H23 lung): 2.07 µM | TGI (NCI-H23 lung): 7.82 µM | GI50 (OVCAR-3 ovarian): 1.85 µM | TGI (OVCAR-3 ovarian): 5.74 µM

Source: PubChem BioAssay (NCI)
